Legend:
[1] = system: Rattus norvegicus; assay: Acute in vivo activity measured by total plasma cholesterol concentration levels (TC) at 30 mg/kg dose; assay type: functional
[2] = target: T1, Sterol O-acyltransferase 1 (Rattus norvegicus, UniProt O70536); assay: In vitro inhibitory activity against acyl coenzyme A:cholesterol acyltransferase 1 in microsomes of rat liver
T1 sequence (O70536 whole entry): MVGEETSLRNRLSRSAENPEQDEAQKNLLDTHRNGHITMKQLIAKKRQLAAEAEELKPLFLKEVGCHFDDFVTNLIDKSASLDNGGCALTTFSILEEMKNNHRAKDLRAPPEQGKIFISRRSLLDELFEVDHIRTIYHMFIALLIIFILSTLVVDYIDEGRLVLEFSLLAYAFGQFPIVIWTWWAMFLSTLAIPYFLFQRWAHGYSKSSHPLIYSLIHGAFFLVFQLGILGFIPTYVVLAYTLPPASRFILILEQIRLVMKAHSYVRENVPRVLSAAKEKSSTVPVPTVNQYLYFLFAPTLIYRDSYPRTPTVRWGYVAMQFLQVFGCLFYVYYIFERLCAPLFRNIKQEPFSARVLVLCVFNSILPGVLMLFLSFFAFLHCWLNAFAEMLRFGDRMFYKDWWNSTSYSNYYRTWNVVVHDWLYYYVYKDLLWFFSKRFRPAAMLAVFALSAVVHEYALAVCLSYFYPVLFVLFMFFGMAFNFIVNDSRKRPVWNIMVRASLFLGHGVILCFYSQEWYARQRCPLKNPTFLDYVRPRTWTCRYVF

[3] = target: T2, Sterol O-acyltransferase 1 (Rattus norvegicus) (UniProt O70536); assay: Acute in vivo activity was measured by the total plasma cholesterol concentration levels(TC) at dose 3 mg/kg; assay type: functional, organism-based; set-up: dose 3 mg/kg
T2 sequence (whole entry): T1 sequence (O70536 whole entry)

SMILES	Delta TC [1]	IC50 [2]	Delta TC [3]
CC(C)c1cccc(C(C)C)c1OS(=O)(=O)NC(=O)Oc1c(F)cccc1F	-27%	65 µM	
CC(C)c1cccc(C(C)C)c1NC(=O)NS(=O)(=O)N1CCCC1		15 µM	
CCCCCCN(CCCCCC)S(=O)(=O)NC(=O)Oc1c(C(C)(C)C)cc(C)cc1C(C)(C)C		4.3 µM	
CC(C)c1cc(Cl)cc(C(C)C)c1OC(=O)NS(=O)(=O)Oc1c(C(C)C)cccc1C(C)C	2%	42 µM	
CC(C)c1cccc(C(C)C)c1NC(=O)NS(=O)(=O)N1CCCCC1		17 µM	
COC(=O)NS(=O)(=O)Nc1c(C(C)C)cccc1C(C)C		> 100 µM	
CC(C)c1cccc(C(C)C)c1OS(=O)(=O)NC(=O)OC1C2CC3CC(C2)CC1C3 (stereo not given)	-36%	23 µM	
CC(C)c1cccc(C(C)C)c1OS(=O)(=O)NC(=O)Oc1c(C(C)(C)C)cc(CN(C)C)cc1C(C)(C)C	2%	22 µM	
Cc1cc(C(C)(C)C)c(OC(=O)NS(=O)(=O)N(C)CCc2ccccn2)c(C(C)(C)C)c1		31 µM	
CCCCCCCCCCCCOS(=O)(=O)NC(=O)Sc1c(C(C)C)cccc1C(C)C	-9%	48 µM	
COc1cc(C(C)(C)C)c(OC(=O)NS(=O)(=O)Oc2c(C(C)C)cccc2C(C)C)c(C(C)(C)C)c1	-72%	4.8 µM	
CC(C)c1cccc(C(C)C)c1OC(=O)NS(=O)(=O)Oc1c(C(C)C)cccc1C(C)C	-70%	9.4 µM	
CC(C)c1cccc(C(C)C)c1OS(=O)(=O)NC(=O)Oc1cccnc1	-2%	> 50 µM	
C=CCN(CC=C)S(=O)(=O)NC(=O)Nc1c(C(C)C)cccc1C(C)C		2.7 µM	2%
CCCCN(CCCC)S(=O)(=O)NC(=O)Nc1c(C(C)C)cccc1C(C)C		0.36 µM	
CC(C)c1cccc(C(C)C)c1NC(=O)NS(=O)(=O)N1CCC(c2ccccc2)CC1		10.4 µM	-17%
CCCCN(CC)S(=O)(=O)NC(=O)Nc1c(C(C)C)cccc1C(C)C		1.2 µM	-29%
CC(C)c1cccc(C(C)C)c1NS(=O)(=O)NC(=O)Oc1c(-c2ccccc2)cccc1-c1ccccc1		> 25 µM	
CC(=O)c1cc(C(C)C)c(OC(=O)NS(=O)(=O)Oc2c(C(C)C)cccc2C(C)C)c(C(C)C)c1	-16%	41.8 µM	
Cc1cccc(C(C)(C)C)c1OC(=O)NS(=O)(=O)Oc1c(C(C)C)cccc1C(C)C	-15%	49 µM	

SMILES	Delta TC [1]	IC50 [2]	Delta TC [3]
CC(C)c1cccc(C(C)C)c1OC(=O)NS(=O)(=O)Oc1ccc(F)cc1F	-11%	> 50 µM	
CC(C)c1cccc(C(C)C)c1OC(=O)NS(=O)(=O)N1CCCCC1		> 100 µM	
CC(C)c1cccc(C(C)C)c1OC(=O)NS(=O)(=O)N1CCCC1		53 µM	-4%
CCCCCCCCCCCCOC(=O)NS(=O)(=O)Nc1c(OC)cc(OC)cc1OC		30 µM	
CCCCN(CCCC)S(=O)(=O)NC(=O)Oc1c(C(C)(C)C)cc(C)cc1C(C)(C)C		3.2 µM	
CC(C)c1cccc(C(C)C)c1OS(=O)(=O)NC(=O)Oc1c(F)c(F)c(F)c(F)c1F	-5%	66 µM	
CC(C)c1cccc(C(C)C)c1OC(=O)NS(=O)(=O)N1CCOCC1		> 100 µM	
CC(C)c1cccc(C(C)C)c1OS(=O)(=O)NC(=O)Sc1c(C(C)C)cccc1C(C)C	-17%	8.7 µM	
CCCCCCCCCCCCCCCCCCN(C)S(=O)(=O)NC(=O)Nc1c(C(C)C)cccc1C(C)C		1.9 µM	-18%
CCCCCCCCCCN(CCCCCCCCCC)S(=O)(=O)NC(=O)Nc1c(C(C)C)cccc1C(C)C		0.72 µM	-17%
CCCCCCNS(=O)(=O)NC(=O)Oc1c(C(C)C)cccc1C(C)C		21 µM	-12%
CC(C)c1cccc(C(C)C)c1OC(=O)NS(=O)(=O)Oc1ccccc1	-26%	> 50 µM	
Cc1cc(C(C)(C)C)c(OC(=O)NS(=O)(=O)N(CC2CCCO2)CC2CCCO2)c(C(C)(C)C)c1 (stereo not given)		21 µM	
CCCCCCCCCCCCOS(=O)(=O)[N-]C(=O)Nc1c(C(C)C)cccc1C(C)C.[Na+]	-60%	5 µM	
CC(C)c1ccccc1OC(=O)NS(=O)(=O)Oc1c(C(C)C)cccc1C(C)C	-37%	> 50 µM	
CC(C)c1cccc(C(C)C)c1NC(=O)NS(=O)(=O)N(C)C		3.9 µM	
CCOC(=O)[N-]S(=O)(=O)Oc1c(C(C)C)cccc1C(C)C.[Na+]	17%	> 50 µM	
CCCCCCCCN(C)S(=O)(=O)NC(=O)Oc1c(C(C)(C)C)cc(C)cc1C(C)(C)C		18 µM	1%
CCC(C)N(C(=O)NS(=O)(=O)Oc1c(C(C)C)cccc1C(C)C)C(C)CC (stereo not given)	-20%	12 µM	
